Experimental data: patent US12173088B2, “Anti-microbial peptides” (priority 2018, dated 2024)
≈ marks a conversion by molar mass, not a printed value. Where two headings read alike, the source gives them in different places. Peptide text beside a SMILES is read from it.

Legend:
[1] = system: S. aureus USA300; assay: microbe, parasite or virus in culture; format: cell-based, Staphylococcus aureus; settings: for MIC S. aureus USA 300: quantified by UV
Summary of the method: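 Broth microdilution: log-phase cultures in tryptic soy broth diluted to OD600 0.001, exposed to two-fold diluted peptides at 37° C overnight, growth read at 630 nm. Medium effects on S. aureus USA300 tested with up to 200 mM NaCl, 2 mM CaCl2, 5-10% human serum, mouse plasma, fluids or tissue homogenate supernatants.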

[2] = system: E. coli ATCC 25922; format: cell-based, Escherichia coli
Summary of the method: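 Peptides, serially diluted two-fold, were incubated overnight at 37 °C with E. coli ATCC 25922 from log-phase cultures adjusted to OD600 0.001. Turbidity at 630 nm served as the read-out in this broth microdilution format.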

[3] = system: P. aeruginosa PAO1; format: cell-based, Pseudomonas aeruginosa
Summary of the method: (§1)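 Broth microdilution in tryptic soy broth: log-phase cultures (OD600 ≈0.5) diluted to OD600 0.001, given two-fold peptide dilutions, incubated overnight at 37° C. Growth read at 630 nm.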

[4] = Hemolytic assay; format: cell-based, human; settings: human, human red blood cells, 2% (v/v)
Summary of the method: (§2)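 HL50 marks the peptide level lysing half of a 2% (v/v) suspension of washed human erythrocytes after 1 h at 37 °C. Released hemoglobin measured at 545 nm, scaled between PBS (0%) and Triton X-100 (2% or 1%; 100%). Selectivity index computed as HL50 over MIC.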

[5] = system: K. pneumoniae ATCC 13883; format: cell-based, Klebsiella pneumoniae; settings: quantified by UV
Summary of the method: as §1

[6] = system: human red blood cells (hRBCs); assay: Hemolytic assay; format: cell-based
Summary of the method: as §2

[7] = Table 4, quantitated based on weight
[8] = Table 4, quantitated based on weight, read-out: HL50, peptide concentration for 50% hemolysis

CC(C)C[C@H](NC(=O)[C@H](CCCCN)NC(=O)CNC(=O)[C@H](CC(C)C)NC(=O)[C@H](CC(C)C)NC(=O)[C@H](CC(C)C)NC(=O)[C@H](CO)NC(=O)[C@H](CC(C)C)NC(=O)[C@H](CC(C)C)NC(=O)[C@H](CC(C)C)NC(=O)[C@H](CO)NC(=O)[C@H](CC(C)C)NC(=O)CN)C(N)=O [DFT504, GLSLLLSLLLGKL] (H-GLSLLLSLLLGKL-NH2; N-terminus and C-terminus assumed)
MIC SA (S. aureus USA300) ([1]; USA300): 6.2 µM (≈ 8.3 µg/mL)
MIC EC (E. coli ATCC 25922) ([2]; ATCC 25922): >25 µM
MIC PA (P. aeruginosa PAO1) ([3]; PAO1): >25 µM
HC50 at 1 h [4]: 8 µM

CC(C)C[C@H](NC(=O)[C@H](CC(C)C)NC(=O)[C@H](CCCCN)NC(=O)CNC(=O)[C@H](CC(C)C)NC(=O)[C@H](CC(C)C)NC(=O)[C@H](CC(C)C)NC(=O)[C@H](CC(C)C)NC(=O)[C@H](CO)NC(=O)[C@H](CO)NC(=O)[C@H](CC(C)C)NC(=O)[C@H](CC(C)C)NC(=O)CN)C(N)=O [DFT505, GLLSSLLLLGKLL] (H-GLLSSLLLLGKLL-NH2; N-terminus and C-terminus assumed)
MIC SA (S. aureus USA300) ([1]; USA300): 3.1 µM (≈ 4.15 µg/mL)
MIC EC (E. coli ATCC 25922) ([2]; ATCC 25922): >25 µM
MIC PA (P. aeruginosa PAO1) ([3]; PAO1): >25 µM
HC50 at 1 h [4]: 20 µM

CC(C)C[C@H](NC(=O)[C@H](CC(C)C)NC(=O)CNC(=O)[C@H](CC(C)C)NC(=O)[C@H](CC(C)C)NC(=O)[C@H](CO)NC(=O)[C@H](CC(C)C)NC(=O)[C@H](CC(C)C)NC(=O)[C@H](CO)NC(=O)[C@H](CC(C)C)NC(=O)[C@H](CC(C)C)NC(=O)[C@H](CCCCN)NC(=O)CN)C(N)=O [DFT527, GKLLSLLSLLGLL] (H-GKLLSLLSLLGLL-NH2; N-terminus and C-terminus assumed)
MIC SA (S. aureus USA300) ([1]; USA300): 3.1 µM (≈ 4.15 µg/mL)
MIC EC (E. coli ATCC 25922) ([2]; ATCC 25922): >25 µM
MIC PA (P. aeruginosa PAO1) ([3]; PAO1): >25 µM
HC50 at 1 h [4]: 20 µM

CC(C)C[C@H](NC(=O)[C@H](CC(C)C)NC(=O)[C@H](CCCCN)NC(=O)[C@H](CC(C)C)NC(=O)CNC(=O)[C@H](CC(C)C)NC(=O)[C@H](CO)NC(=O)[C@H](CC(C)C)NC(=O)[C@H](CC(C)C)NC(=O)[C@H](CO)NC(=O)[C@H](CC(C)C)NC(=O)[C@H](CC(C)C)NC(=O)CN)C(N)=O [DFT531, GLLSLLSLGLKLL] (H-GLLSLLSLGLKLL-NH2; N-terminus and C-terminus assumed)
MIC SA (S. aureus USA300) [1, 7]: 0.8 µM (≈ 1.07 µg/mL)
MIC EC (E. coli ATCC 25922) [2, 7]: >25 µM
MIC PA (P. aeruginosa PAO1) [3, 7]: >25 µM
HC50 at 1 h [4, 8]: 7 µM

CC(C)C[C@H](NC(=O)[C@H](CC(C)C)NC(=O)[C@H](CCCCN)NC(=O)[C@H](CC(C)C)NC(=O)CNC(=O)[C@H](CC(C)C)NC(=O)[C@H](CO)NC(=O)[C@H](CC(C)C)NC(=O)[C@H](CC(C)C)NC(=O)[C@H](CO)NC(=O)CNC(=O)[C@H](CC(C)C)NC(=O)[C@@H](N)CC(C)C)C(N)=O [DFT532, LLGSLLSLGLKLL] (H-LLGSLLSLGLKLL-NH2; N-terminus and C-terminus assumed)
MIC SA (S. aureus USA300) ([1]; USA300): 1.6 µM (≈ 2.14 µg/mL)
MIC EC (E. coli ATCC 25922) ([2]; ATCC 25922): >25 µM
MIC PA (P. aeruginosa PAO1) ([3]; PAO1): >25 µM
HC50 at 1 h [4]: 13 µM

CC(C)C[C@H](NC(=O)[C@H](CC(C)C)NC(=O)[C@H](CCCCN)NC(=O)[C@H](CC(C)C)NC(=O)CNC(=O)[C@H](CC(C)C)NC(=O)[C@H](CO)NC(=O)[C@H](CC(C)C)NC(=O)[C@H](CC(C)C)NC(=O)[C@H](CC(C)C)NC(=O)[C@H](CO)NC(=O)[C@H](CC(C)C)NC(=O)[C@@H](N)CCCCN)C(N)=O [DFT560, KLSLLLSLGLKLL] (H-KLSLLLSLGLKLL-NH2; N-terminus and C-terminus assumed)
MIC SA (S. aureus USA300) [1, 7]: 1.6 µM (≈ 2.26 µg/mL)
MIC EC (E. coli ATCC 25922) ([2]; ATCC 25922): >25 µM
MIC PA (P. aeruginosa PAO1) ([3]; PAO1): >25 µM
HC50 at 1 h [4]: 25 µM

CC(C)C[C@H](NC(=O)[C@H](CC(C)C)NC(=O)[C@H](CCCCN)NC(=O)[C@H](CC(C)C)NC(=O)[C@H](CCCCN)NC(=O)[C@H](CC(C)C)NC(=O)[C@H](CO)NC(=O)[C@H](CC(C)C)NC(=O)[C@H](CC(C)C)NC(=O)[C@H](CC(C)C)NC(=O)[C@H](CO)NC(=O)[C@H](CC(C)C)NC(=O)CN)C(N)=O [DFT563, GLSLLLSLKLKLL] (H-GLSLLLSLKLKLL-NH2; N-terminus and C-terminus assumed)
MIC SA (S. aureus USA300) ([1]; USA300): 6.2 µM (≈ 8.74 µg/mL)
MIC EC (E. coli ATCC 25922) ([2]; ATCC 25922): >25 µM
MIC PA (P. aeruginosa PAO1) ([3]; PAO1): >25 µM
HC50 at 1 h [4]: > 300 µM

CC(C)C[C@H](NC(=O)[C@H](CC(C)C)NC(=O)[C@H](CCCCN)NC(=O)[C@H](CC(C)C)NC(=O)CNC(=O)[C@H](CC(C)C)NC(=O)[C@H](CCCCN)NC(=O)[C@H](CC(C)C)NC(=O)[C@H](CC(C)C)NC(=O)[C@H](CC(C)C)NC(=O)[C@H](CCCCN)NC(=O)[C@H](CC(C)C)NC(=O)CN)C(N)=O [DFT564, GLKLLLKLGLKLL] (H-GLKLLLKLGLKLL-NH2; N-terminus and C-terminus assumed)
MIC ([1]; USA300): 3.1 µM (≈ 4.4 µg/mL)
MIC ([1]; USA300, pH 6.8): 1.6 µM (≈ 2.27 µg/mL)
MIC ([1]; USA300, pH 7.4): 3.1 µM (≈ 4.4 µg/mL)
MIC ([1]; USA300, pH 8): 1.6 µM (≈ 2.27 µg/mL)
MIC EC (E. coli ATCC 25922) ([2]; ATCC 25922): >25 µM
MIC PA (P. aeruginosa PAO1) ([3]; PAO1): >25 µM
HC50 at 1 h [4]: < 25 µM

CC(C)C[C@H](NC(=O)[C@H](CC(C)C)NC(=O)[C@H](CCCCN)NC(=O)[C@H](CC(C)C)NC(=O)CNC(=O)[C@H](CC(C)C)NC(=O)[C@H](CCCCN)NC(=O)[C@H](CC(C)C)NC(=O)[C@H](CC(C)C)NC(=O)[C@H](CC(C)C)NC(=O)[C@H](CCCCN)NC(=O)[C@H](CC(C)C)NC(=O)[C@@H](N)CCCCN)C(N)=O [DFT565, KLKLLLKLGLKLL] (H-KLKLLLKLGLKLL-NH2; N-terminus and C-terminus assumed)
MIC ([1]; USA300): 3.1 µM (≈ 4.63 µg/mL)
MIC SA (S. aureus USA300) ([1]; USA300): 0.8 µM (≈ 1.19 µg/mL)
MIC ([1]; USA300, pH 6.8): 3.1 to 6.2 µM
MIC ([1]; USA300, pH 7.4): 3.1 µM (≈ 4.63 µg/mL)
MIC ([1]; USA300, pH 8): 3.1 µM (≈ 4.63 µg/mL)
MIC EC (E. coli ATCC 25922) ([2]; ATCC 25922): >25 µM
MIC PA (P. aeruginosa PAO1) ([3]; PAO1): >25 µM
HC50 at 1 h [4]: 50 µM

CC(C)C[C@H](NC(=O)[C@H](CC(C)C)NC(=O)[C@H](CCCCN)NC(=O)CNC(=O)[C@H](CC(C)C)NC(=O)[C@H](CC(C)C)NC(=O)[C@H](CO)NC(=O)[C@H](CC(C)C)NC(=O)[C@H](CC(C)C)NC(=O)[C@H](CO)NC(=O)[C@H](CC(C)C)NC(=O)[C@H](CC(C)C)NC(=O)CN)C(N)=O [DFTamP1, GLLSLLSLLGKLL] (H-GLLSLLSLLGKLL-NH2; N-terminus assumed)
MIC ([1]; 1 mM Ca2+): 0.78 µM (≈ 1.04 µg/mL)
MIC ([1]; 2 mM Ca2+): 0.78 to 1.56 µM
MIC ([1]; 50 mM NaCl): 0.78 µM (≈ 1.04 µg/mL)
MIC ([1]; 100 mM NaCl): 0.78 µM (≈ 1.04 µg/mL)
MIC ([1]; 200 mM NaCl): 0.78 µM (≈ 1.04 µg/mL)
MIC ([1]; Human serum (5%), Table 5): 12.5 µM (≈ 16.7 µg/mL)
MIC ([1]; Murine plasma (5%), Table 5): 6.2^ 2 μM
MIC ([1]; NaCl (150 mM), Table 5): 3.1 to 6.2 µM
MIC ([1]; No salts added, Table 6, by UV): 0.78 µM
MIC S. aureus USA 300 ([1]; Table 2, peptides amidated): 0.78 µM (≈ 1.04 µg/mL)
MIC S. aureus USA 300 ([1]; Table 3): 0.78 µM (≈ 1.04 µg/mL)
MIC SA (S. aureus USA300) [1, 7]: 3.1 µM (≈ 4.15 µg/mL)
MIC ([1]; pH 6.8, Table 5, by weight): 6.2 µM (≈ 8.3 µg/mL)
MIC ([1]; pH 7.4, Table 5): 3.1 µM (≈ 4.15 µg/mL)
MIC ([1]; pH 8.0, Table 5): 3.1 µM (≈ 4.15 µg/mL)
MIC E. coli ATCC 25922 ([2]; Table 2, quantified by UV): >25 µM
MIC EC (E. coli ATCC 25922) [2, 7]: >25 µM
MIC P. aeruginosa PAO1 ([3]; Table 2, quantified by UV): >25 µM
MIC PA (P. aeruginosa PAO1) [3, 7]: >25 µM
MIC K. pneumoniae ([5]; Table 2): >25 µM
MIC K. pneumonia ATCC 13883 ([5]; Table 3): >25 µM
HL50 ([6]; Table 2, lysis of 50% hRBCs (2% v/v)): <3.1 µM
HL50 ([6]; Table 3, hRBCs 2% v/v): <3.1 µM
HC50 at 1 h [4, 8]: 10 µM
